Measurements taken from ChEMBL document CHEMBL5512665, “A CARM1 Inhibitor Potently Suppresses Breast Cancer Both In Vitro and In Vivo” (J Med Chem, 2024).
pEC50: −log10 of the molar value. Active and inactive are the calls of the source. The calls are words filed in the database; no cut-off is given here.

How the values were obtained:
BT-474 = test: Antiproliferative activity against human BT-474 cells assessed as reduction in cell growth incubated for 7 days by celltiter 96 aqueous one solution cell proliferation assay; details: BT-474, 168 h
[1] = Toxicity in BALB/C mouse xenografted with human MCF7 cells assessed as change in lung morphology at 25 mg/kg,ip administrated every other day for 29 days; format: organism-based; details: in vivo, 696 h, time 29 day
MCF7 [2] = test: Antitumor activity against human MCF7 cells xenografted in BALB/C mouse assessed as upregulation of IFIT1 gene expression at 25 mg/kg,ip administrated every other day for 29 days by RT-qPCR analysis; format: functional, organism-based; details: time 29.0 day
MCF7 [3] = test: Antitumor activity against human MCF7 cells xenografted in BALB/C mouse assessed as upregulation of DDX58 gene expression at 25 mg/kg,ip administrated every other day for 29 days by RT-qPCR analysis; format: functional, organism-based; details: time 29.0 day
4T1 = test: Potentiation of etoposide induced antitumor activity against mouse 4T1 cells implanted in BALB/C mouse assessed as upregulation of ISG15 gene expression at 25 mg/kg,ip administrated daily for 12 days in presence of 8 mg/kg etoposide administration by RT-qPCR analysis; format: functional, organism-based; details: time 12.0 day

pEC50 (BT-474): 5.67
SMILES: Cc1ccc(-c2nc(N3CCN(CCN(C)C)CC3)ncc2-c2ccoc2)cc1.Cl.Cl
Activity [1]: Non-Toxic | Activity (MCF7 [2]): Active | Activity (MCF7 [3]): Active | Activity (4T1): Active
